Laboratory results: PubChem BioAssay AID2060610 (Molecular Pharmacology Branch, DTP, NCI, 2025)
Where “and” joins values, the source holds several entries; their conditions need not be identical. Equal values may be shown once.

System: 616215-338-R-J1-PDC complex spheroids, viability % test/control
Experiment: Anticancer human tumor 616215-338-R-J1-PDC patient-derived colon adenocarcinoma cell line growth inhibition [CLK]
Conditions: for viability, T/C: stronger effect = lower value
How it was run: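 Multi-cell-type spheroids combined patient-derived tumor cells with HUVEC endothelial cells and human mesenchymal stem cells. Paired agents were dosed in half-log steps down from about clinical Cmax, or from 10 microM where Cmax was unknown.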

[1] = curve of first compound, second compound 0.0316 µM
[2] = curve of first compound, second compound 0.1 µM
[3] = curve of first compound, second compound 0.316 µM
[4] = curve of first compound, second compound 1 µM
[5] = curve of first compound, second compound 3.16 µM
[6] = curve of first compound, second compound 10 µM
[7] = second compound 0.0316 µM, first compound 0.0316 µM
[8] = second compound 0.0316 µM, first compound 0.1 µM
[9] = second compound 0.0316 µM, first compound 0.316 µM
[10] = second compound 0.0316 µM, first compound 1 µM
[11] = second compound 0.0316 µM, first compound 3.16 µM
[12] = second compound 0.0316 µM, first compound 10 µM
[13] = second compound 0.1 µM, first compound 0.0316 µM
[14] = second compound 0.1 µM, first compound 0.1 µM
[15] = second compound 0.1 µM, first compound 0.316 µM
[16] = second compound 0.1 µM, first compound 1 µM
[17] = second compound 0.1 µM, first compound 3.16 µM
[18] = second compound 0.1 µM, first compound 10 µM
[19] = second compound 0.316 µM, first compound 0.0316 µM
[20] = second compound 0.316 µM, first compound 0.1 µM
[21] = second compound 0.316 µM, first compound 0.316 µM
[22] = second compound 0.316 µM, first compound 1 µM
[23] = second compound 0.316 µM, first compound 3.16 µM
[24] = second compound 0.316 µM, first compound 10 µM
[25] = second compound 1 µM, first compound 0.0316 µM
[26] = second compound 1 µM, first compound 0.1 µM
[27] = second compound 1 µM, first compound 0.316 µM
[28] = second compound 1 µM, first compound 1 µM
[29] = second compound 1 µM, first compound 3.16 µM
[30] = second compound 1 µM, first compound 10 µM
[31] = second compound 3.16 µM, first compound 0.0316 µM
[32] = second compound 3.16 µM, first compound 0.1 µM
[33] = second compound 3.16 µM, first compound 0.316 µM
[34] = second compound 3.16 µM, first compound 1 µM
[35] = second compound 3.16 µM, first compound 3.16 µM
[36] = second compound 3.16 µM, first compound 10 µM
[37] = second compound 10 µM, first compound 0.0316 µM
[38] = second compound 10 µM, first compound 0.1 µM
[39] = second compound 10 µM, first compound 0.316 µM
[40] = second compound 10 µM, first compound 1 µM
[41] = second compound 10 µM, first compound 3.16 µM
[42] = second compound 10 µM, first compound 10 µM
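Also: spheroids exposed to agents for 7 days.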
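For viability, T/C in this document: 100% = DMSO vehicle wells.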

C#Cc1c(F)ccc2cc(O)cc(-c3ncc4c(N5CC6CCC(C5)N6)nc(OCC56CCCN5CC(F)C6)nc4c3F)c12 (stereo not drawn) + CNC(=O)c1ccc(Nc2nc(OC3CCCC3)c3c(-c4ccc5nc(C)oc5c4)c[nH]c3n2)c(OC)c1
IC50 [1]: > 10000 nM
IC50 [2]: 232 nM
IC50 [3]: < 31.6 nM
IC50 [4]: < 31.6 nM
IC50 [5]: < 31.6 nM
IC50 [6]: < 31.6 nM
viability, T/C [7]: 88.8%
viability, T/C [8]: 90.4%
viability, T/C [9]: 94.1%
viability, T/C [10]: 91.1%
viability, T/C [11]: 112%
viability, T/C [12]: 110%
viability, T/C [13]: 59.7%
viability, T/C [14]: 56.2%
viability, T/C [15]: 45.5%
viability, T/C [16]: 43%
viability, T/C [17]: 32.3%
viability, T/C [18]: 24.4%
viability, T/C [19]: 47.2%
viability, T/C [20]: 43.8%
viability, T/C [21]: 43.2%
viability, T/C [22]: 42.3%
viability, T/C [23]: 33%
viability, T/C [24]: 18.6%
viability, T/C [25]: 44.1%
viability, T/C [26]: 44.2%
viability, T/C [27]: 38.8%
viability, T/C [28]: 30.7%
viability, T/C [29]: 30.4%
viability, T/C [30]: 17.8%
viability, T/C [31]: 38.7%
viability, T/C [32]: 41.3%
viability, T/C [33]: 37.3%
viability, T/C [34]: 33.1%
viability, T/C [35]: 24.2%
viability, T/C [36]: 18.2%
viability, T/C [37]: 48.6%
viability, T/C [38]: 42.6%
viability, T/C [39]: 33.2%
viability, T/C [40]: 34.7%
viability, T/C [41]: 24.8%
viability, T/C [42]: 18.9%

O=c1[nH]cc(F)c(=O)[nH]1 + CNC(=O)c1ccc(Nc2nc(OC3CCCC3)c3c(-c4ccc5nc(C)oc5c4)c[nH]c3n2)c(OC)c1
IC50 [1]: 707 nM
IC50 [2]: < 31.6 nM
IC50 [3]: < 31.6 nM
IC50 [4]: < 31.6 nM
IC50 [5]: < 31.6 nM
IC50 [6]: < 31.6 nM
viability, T/C [7]: 96.7%
viability, T/C [8]: 110%
viability, T/C [9]: 60.2%
viability, T/C [10]: 52.3%
viability, T/C [11]: 43.1%
viability, T/C [12]: 41.4%
viability, T/C [13]: 47%
viability, T/C [14]: 45.9%
viability, T/C [15]: 35%
viability, T/C [16]: 34.1%
viability, T/C [17]: 40.9%
viability, T/C [18]: 36.5%
viability, T/C [19]: 41.6%
viability, T/C [20]: 41.7%
viability, T/C [21]: 33.6%
viability, T/C [22]: 37.3%
viability, T/C [23]: 36.6%
viability, T/C [24]: 39.3%
viability, T/C [25]: 43.4%
viability, T/C [26]: 38%
viability, T/C [27]: 36.3%
viability, T/C [28]: 37.8%
viability, T/C [29]: 38.2%
viability, T/C [30]: 33.3%
viability, T/C [31]: 42.3%
viability, T/C [32]: 42.2%
viability, T/C [33]: 38%
viability, T/C [34]: 32.6%
viability, T/C [35]: 36%
viability, T/C [36]: 36.4%
viability, T/C [37]: 51.1%
viability, T/C [38]: 41.3%
viability, T/C [39]: 41.8%
viability, T/C [40]: 38.5%
viability, T/C [41]: 37.1%
viability, T/C [42]: 39.2%

Cn1ncnc1[C@H]1c2n[nH]c(=O)c3cc(F)cc(c23)N[C@@H]1c1ccc(F)cc1 + CN1CCN(c2cc(C(=O)Nc3cc4cc(-c5cnn(C)c5)ccc4cn3)ccn2)CC1
IC50 [1]: > 100 nM
IC50 [2]: > 100 nM
IC50 [3]: < 0.316 nM
IC50 [4]: < 0.316 nM
IC50 [5]: < 0.316 nM
IC50 [6]: < 0.316 nM
viability, T/C (second compound 0.0316 µM, first compound 0.000316 µM): 113%
viability, T/C (second compound 0.0316 µM, first compound 0.001 µM): 96.3%
viability, T/C (second compound 0.0316 µM, first compound 0.00316 µM): 99.7%
viability, T/C (second compound 0.0316 µM, first compound 0.01 µM): 122%
viability, T/C [7]: 98.3%
viability, T/C [8]: 112%
viability, T/C (second compound 0.1 µM, first compound 0.000316 µM): 119%
viability, T/C (second compound 0.1 µM, first compound 0.001 µM): 106%
viability, T/C (second compound 0.1 µM, first compound 0.00316 µM): 102%
viability, T/C (second compound 0.1 µM, first compound 0.01 µM): 105%
viability, T/C [13]: 101%
viability, T/C [14]: 69.5%
viability, T/C (second compound 0.316 µM, first compound 0.000316 µM): 29.3%
viability, T/C (second compound 0.316 µM, first compound 0.001 µM): 35.2%
viability, T/C (second compound 0.316 µM, first compound 0.00316 µM): 39.2%
viability, T/C (second compound 0.316 µM, first compound 0.01 µM): 38.7%
viability, T/C [19]: 36.5%
viability, T/C [20]: 32%
viability, T/C (second compound 1 µM, first compound 0.000316 µM): 0.12%
viability, T/C (second compound 1 µM, first compound 0.001 µM): 0.14%
viability, T/C (second compound 1 µM, first compound 0.00316 µM): 1.57%
viability, T/C (second compound 1 µM, first compound 0.01 µM): 0.1%
viability, T/C [25]: 1.12%
viability, T/C [26]: 4.26%
viability, T/C (second compound 3.16 µM, first compound 0.000316 µM): 0.1%
viability, T/C (second compound 3.16 µM, first compound 0.001 µM): 0.14%
viability, T/C (second compound 3.16 µM, first compound 0.00316 µM): 2.13%
viability, T/C (second compound 3.16 µM, first compound 0.01 µM): 0.09%
viability, T/C [31]: 0.08%
viability, T/C [32]: 1.74%
viability, T/C (second compound 10 µM, first compound 0.000316 µM): 0.12%
viability, T/C (second compound 10 µM, first compound 0.001 µM): 0.17%
viability, T/C (second compound 10 µM, first compound 0.00316 µM): 0.13%
viability, T/C (second compound 10 µM, first compound 0.01 µM): 0.13%
viability, T/C [37]: 1.65%
viability, T/C [38]: 0.15%

C=C(F)C(=O)N1CCN(c2nc(OCC3CCCN3C)nc3c2CCN(c2cccc4cccc(Cl)c24)C3)CC1CC#N (stereo not drawn)
viability, T/C (compound 0.0316 µM): 101% and 104%
viability, T/C (compound 0.1 µM): 99.9% and 107%
viability, T/C (compound 0.316 µM): 96.3% and 110%
viability, T/C (compound 1 µM): 93.6% and 106%
viability, T/C (compound 3.16 µM): 116% and 114%
viability, T/C (compound 10 µM): 9.79% and 0.24%
IC50 (curve of compound): 6030 nM and 5890 nM
